Results from patent US20230391841A1, “MACROCYCLIC PEPTIDES” (Herantis Pharma OYJ, priority 2019, published 2023).
Bridge positions count the residues as written; N and C are the ends. Peptide text beside a SMILES is read from it.

Assays:
[1] = In vitro metabolic stability in rat plasma; format: in vitro ADME; conditions: 1 μM, 37° C., up to 120 min
Protocol: The linear and macrocyclic compounds 1-14 and 23-26 (SEQ ID NOs: 1-14 and 23-26) were incubated in concentration 1 μM with rat plasma (Sprague-Dawley, male; 400 μl) for different time points (0, 20, 40, 60 or 120 min) at 37° C. The incubation was terminated by acetonitrile. The collected samples were centrifuged for 20 min at 2272×g and analyzed. io Stock solutions were prepared using 50% DMSO, and the compounds were spiked 1/100 to incubation to have final DMSO content of 0.5%. The samples were analyzed by UHPLC/PDA with high resolution mass spectrometry (QE-Orbitrap-MS on DDI mode) to monitor disappearance of the compound. Enalapril 1 μM was used as a disappearance rate control. For analysis of compounds 9, 10, 13 and 14 stock solutions were prepared with PBS, and samples were analyzed by UHPLC-ToF mass spectrometry. The analytical method was optimized by using the parent compounds for optimum chromatographic properties (peak shape and retention) and mass spectrometric ionization. The ion chromatograms were extracted from the total ion chromatograms using calculated monoisotopic accurate masses with 5 mDa window. Disappearance was based on LC/MS peak areas, marking 0 min as 100%.
The first-order rate constants k (min-1) of the metabolism were obtained from the slope of time versus logarithm (% of remaining compound) plot using Excel software. The in vitro half-life (t1/2) of study compound is defined as: t1/2=In2/k. Calculated half-life is based on compound disappearance from rat plasma.

[2] = In vitro metabolic stability in human plasma; format: in vitro ADME; conditions: 1 μM, 37° C., up to 120 min
Protocol: s Metabolic stability studied using human plasma over the time period of 120 min, with initial test concentration of 1 μM. Samples were analyzed using LC/QE-orbitrap-MS. Calculated half-life is based on compound disappearance in human plasma.
The linear or macrocyclic compounds 1-8, 11-14 and 23-24 (SEQ ID NOs: 1-8, 11-14 and 23-26) were incubated in concentration 1 μM with human plasma (mixed gender, 400 μl) for different time points (0, 20, 40, 60 or 120 min) at 37° C. The incubation was terminated by acetonitrile. The collected samples were centrifuged for 20 min at 2272×g and analyzed. The samples were analyzed by UHPLC/PDA with high resolution mass spectrometry (QE-Orbitrap-MS on DDI mode) to monitor disappearance of the compound. Propanthelin […] bromide 1 μM was used as a disappearance rate control. The analytical method was optimized by using the parent compounds for optimum chromatographic properties (peak shape and retention) and mass spectrometric ionization. The Ion chromatograms were extracted from the total ion chromatograms using calculated monoisotopic accurate masses with 5 mDa window. Disappearance was based on LC/MS peak areas, marking 0 min as 100%. The first-order rate constants k (min-1) of the metabolism were obtained from the slope of time versus logarithm (% of remaining compound) plot using Excel software.

[3] = tested on: dopaminergic TH-positive neurons injured with MPP+; assay: Dependence of neuroprotective activity on UPR pathway signaling (MPP+ injured mesencephalic neurons with PERK or IRE1alpha inhibitor); format: cell-based, rat; conditions: for neuroprotective effect in the presence of PERK inhibitor GSK2606414: GSK2606414 added 1 h before test compound; for neuroprotective effect in the presence of IRE1alpha inhibitor KIRA6: KIRA6 added 1 h before test compound
Protocol: CDNF and MANF protect cells from ER stress-induced cell dysfunction or cell death, such as apoptosis by modulating cellular responses to ER stress. […] Binding of compounds to GRP78-NBD was assessed in a cell-free binding assay using purified recombinant GRP78-NBD and synthesized peptides. As GRP78 also serves as a critical ligand of the three receptors of the unfolded protein response (UPR) pathway, […], PERK and ATF6, the dependency of the compounds' neuroprotective effects on UPR signaling was also tested.
The neuronal cell culture, MPP+ intoxication, immunostaining and analysis of neuroprotective effects of compounds were performed as in Example 1. PERK inhibitor GSK2606414 (2 µM , Sigma) or IRE1alpha inhibitor KIRA6 (2 µM , Sigma) were added to the culture 1 h before addition of the test compounds.

GRP78-NBD = assay: Binding to GRP78-NBD Kd (μM)
Text: Table printed on a drawing sheet, FIG. 5B
Head of the field: Binding to GRP78-NBD Kd (μM)
GRP78-NBD is shown in a translucent surface model along with its cartoon trace. The Cys-Cys bond in compound 12 (SEQ ID NO: 12) is shown in sticks.
The binding affinities are obtained by a microscale thermophoresis-based cell-free assay.
GSK2606414 was used to inhibit PERK signaling and KIRA6 to inhibit IRE1alpha signaling. * p<0.05, ** p<0.01, *** p<0.001, **** p<0.0001 one-way ANOVA is test with post-hoc Fisher's LSD test for pairwise comparison vs MPP+ negative control. # p<0.05, ## p<0.01, ### p<0.001, #### p<0.0001 one-way ANOVA test with post-hoc Fisher's LSD test for pairwise comparison between effect of compound alone and its combination with UPR signal inhibitor.
Where the first naming reader finds the target: head: Binding to GRP78-NBD Kd (μM)

[4] = Brain microdialysis (striatal interstitial fluid) after intravenous bolus; format: in vivo, male Sprague-Dawley rats; conditions: single 10 mg/kg intravenous bolus, microdialysis 4 hours
Protocol: Microdialysis probes were inserted to the ventral striatum of rats through implanted guide […] cannulas and perfused by aCSF. Compound 14 was administered as a single 10 mg/kg intravenous bolus injection and microdialysis samples were collected in 20-min interval for 4 hours. The brain interstitial fluid (ISF) concentrations of the compound were determined by LC-MS/MS and normalized to the recovery-% of the microdialysis membrane (determined by in vitro experiments).
Brain microdialysis study was carried out on the separate group of awake animals treated intravenously with compound 14. One week before the microdialysis experiment Sprague- Dawley rats were implanted with a guide cannula in the striatum at the following coordinates: AP +0.6 mm; L −3.0 mm; V −2.8 mm, providing the final V −6.8 mm for the tip of the microdialysis probe. On the day of the experiment a microdialysis probe (Eicom A-I: 0.22 mm O.D., 4 mm membrane length with cut-off 50 kDa) were inserted into the guide cannula and perfused at a constant flow-rate of 0.1 μL/min with artificial cerebrospinal fluid (aCSF) solution. […] The brain intrastitial fluid concentrations of the compound were analysed by UHPLC-MS/MS. […] Determined recovery percentage (29.3%) was used for correction of the data obtained in microdialysis study.

SMILES | stability in rat plasma as compared to linear counterpart [1] | stability in human plasma as compared to linear counterpart [2] | neuroprotective effect in the presence of PERK inhibitor GSK2606414 [3] | neuroprotective effect in the presence of IRE1alpha inhibitor KIRA6 [3] | Kd (GRP78-NBD) [nM] | penetration to the brain parenchyma (brain ISF, striatum) [4]
CC[C@H](C)[C@@H]1NC(=O)[C@H](CCC(N)=O)NC(=O)[C@H](CCCCN)NC(=O)[C@H](CC(C)C)NC(=O)[C@H](CCC(=O)O)NC(=O)[C@H](C)NC(=O)[C@H](C(C)C)NC(=O)[C@H](CCCNC(=N)N)NC(=O)[C@H](CCSC)NC(=O)[C@H](CCCCN)NC(=O)[C@H](CCCNC(=N)N)NC(=O)[C@H](CC(C)C)NC(=O)[C@H](CC(=O)O)NC(=O)[C@H](C(C)C)NC(=O)[C@H](CCC(=O)O)NC(=O)[C@H](C)NC(=O)[C@@H]2CSSC[C@H](NC(=O)[C@H](CCC(=O)O)NC(=O)[C@H](CCC(=O)O)NC(=O)CNC(=O)[C@H](Cc3c[nH]c4ccccc34)NC(=O)[C@H](CO)NC(=O)[C@H](Cc3c[nH]cn3)NC(=O)[C@H](CC(C)C)NC1=O)C(=O)N[C@@H](CCCNC(=N)N)C(=O)N[C@@H](C)C(=O)N2 [Compound 2] (cyclo(ACAEVDLRKMRVAELKQILHSWGEECR); disulfide 2-26) | improved stability | improved stability |  |  |  | 
CC[C@H](C)[C@@H]1NC(=O)[C@H](CCCCN)NC(=O)[C@H](CCCCN)NC(=O)[C@H](CC(C)C)NC(=O)[C@H](CCC(=O)O)NC(=O)[C@H](CCCCN)NC(=O)[C@H](C(C)C)NC(=O)[C@H](CCCNC(=N)N)NC(=O)[C@H](CC(C)C)NC(=O)[C@H](CCCCN)NC(=O)[C@H](CCC(=O)O)NC(=O)[C@H](C)NC(=O)[C@@H]2CSSC[C@H](NC(=O)[C@H]([C@@H](C)O)NC(=O)[C@H](CCC(=O)O)NC(=O)CNC(=O)[C@H](Cc3c[nH]c4ccccc34)NC(=O)[C@H](CC(=O)O)NC(=O)[C@H](CC(=O)O)NC(=O)[C@H](CC(C)C)NC1=O)C(=O)N[C@@H](CCCCN)C(=O)NCC(=O)N2 [Compound 8] (cyclo(AEKLRVKELKKILDDWGETCKGC); disulfide 20-23) | improved stability |  |  |  |  | 
CC[C@H](C)[C@@H]1NC(=O)[C@H](CO)NC(=O)[C@H](CCCCN)NC(=O)[C@H](CCC(=O)O)NC(=O)[C@H](C)NC(=O)[C@@H]2CSSC[C@H](NC(=O)[C@H]([C@@H](C)O)NC(=O)[C@H](CCC(=O)O)NC(=O)CNC(=O)[C@H](Cc3c[nH]c4ccccc34)NC(=O)[C@H](CC(=O)O)NC(=O)[C@H](CC(=O)O)NC(=O)[C@H](CC(C)C)NC1=O)C(=O)N[C@@H](CCCCN)C(=O)NCC(=O)N2 [Compound 10, KSILDDWGETCKGCAE] (cyclo(AEKSILDDWGETCKGC); disulfide 13-16) | improved stability |  | abolished | abolished |  | 
C[C@@H]1NC(=O)[C@@H]2CSSC[C@H](NC(=O)[C@H](CCC(=O)O)NC(=O)[C@H](CCC(=O)O)NC(=O)CNC(=O)[C@H](Cc3c[nH]c4ccccc34)NC(=O)[C@H]([C@@H](C)O)NC(=O)[C@H](CCCCN)NC(=O)[C@H](CCC(=O)O)NC1=O)C(=O)N[C@@H](CCCNC(=N)N)C(=O)N[C@@H](C)C(=O)N2 [Compound 12, WGEECRACAEKT] (cyclo(ACAEKTWGEECR); disulfide 2-11) |  |  |  |  | 1650 | 
C[C@@H]1NC(=O)[C@@H]2CSSC[C@H](NC(=O)[C@H]([C@@H](C)O)NC(=O)[C@H](CCC(=O)O)NC(=O)CNC(=O)[C@H](Cc3c[nH]c4ccccc34)NC(=O)[C@H](CO)NC(=O)[C@H](CCCCN)NC(=O)[C@H](CCC(=O)O)NC1=O)C(=O)N[C@@H](CCCCN)C(=O)NCC(=O)N2 [Compound 14, WGETCKGCAEKS] (cyclo(AEKSWGETCKGC); disulfide 9-12) | improved stability |  | abolished | abolished | 1500 | penetration
C[C@@H]1NC(=O)[C@@H]2CSSC[C@H](NC(=O)[C@H]([C@@H](C)O)NC(=O)[C@H](CCC(=O)O)NC(=O)CNC(=O)[C@H](Cc3c[nH]c4ccccc34)NC(=O)[C@H](CO)NC(=O)[C@H](CCCCN)NC(=O)[C@H](CCC(=O)O)NC1=O)C(=O)N[C@@H](CCCCN)C(=O)NCC(=O)NCC(=O)N2 [Compound 26, WGETCKGGCAEKS] (cyclo(AEKSWGETCKGGC); disulfide 9-13) | improved stability | improved stability |  |  |  | 
